Where a name gives a salt, the structure may show the parent alone.
Columns and labels:
[1] = tested on: human cervical tumor cell line HeLa (ATCC CCL-2); assay: SAC-Formation - Paclitaxel-Induced Assay; format: cell-based; settings: 24 h, HeLa cells, paclitaxel 0.05 μM, test range 0.005 μM-20 μM, read-out: IC50 [mol/l] SAC-Formation - Paclitaxel-Induced Assay
Outline: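 Read-out is high-content imaging of anti-phospho-H3 Ser10 (mitosis) and Hoechst 33342 (DNA, cell number), with decreased mitotic fraction marking checkpoint breakthrough. Compounds (0.005–20 μM) and 0.05 μM paclitaxel co-added to overnight-plated HeLa for 24 h at 37° C; four-parameter Hill fit.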

[2] = tested on: human cervical tumor cell line HeLa (ATCC CCL-2); assay: SAC-Formation - Nocodazole-Induced Assay; format: cell-based; settings: 24 h, HeLa cells, nocodazole 0.1 μg/ml together with test compound, decrease of mitotic cells (phospho-histone H3 Ser10)
Outline: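 Loss of phospho-histone H3 Ser10-positive cells, counted against Hoechst-stained nuclei by high-content imaging, marked mitotic breakthrough. Compounds (0.005–20 μM, 0.5% DMSO) were co-dosed with 0.1 μg/ml nocodazole onto HeLa cells for 24 h at 37 °C. Curves were fitted with a four-parameter Hill equation.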

Row | IC50 ([1]; Homo sapiens, HeLa) [nM] | IC50 ([2]; Homo sapiens, HeLa) [nM] | IC50 [1] [nM] | IC50 [2] [nM] | SMILES
1 | 89 | 16 |  |  | Cc1nsc(Nc2cnc(C(F)(F)F)cn2)c1C(=O)Nc1ccc(O[C@@H]2CCN(CCC(F)(F)F)C[C@@H]2F)nc1 [Example 139, N-(6-{[(3S,4R)-3-fluoro-1-(3,3,3-trifluoropropyl)piperidin-4-yl]oxy}pyridin-3-yl)-3-methyl-5-{[5-(trifluoromethyl)pyrazin-2-yl]amino}-1,2-thiazole-4-carboxamide]
2 | 1200 | 710 |  |  | Cc1nsc(Nc2cnc(C(F)(F)F)cn2)c1C(=O)Nc1ccc(C(=O)N2CCN(CC(F)F)CC2)cc1 [Example 154, N-(4-{[4-(2,2-difluoroethyl)piperazin-1-yl]carbonyl}phenyl)-3-methyl-5-{[5-(trifluoromethyl)pyrazin-2-yl]amino}-1,2-thiazole-4-carboxamide]
3 | 83 | 53 |  |  | Cc1nsc(Nc2cnc(C(F)(F)F)cn2)c1C(=O)Nc1ccc(OC[C@@H]2CCN(CC(F)F)C2)nc1 [Example 127, N-(6-{[(3R)-1-(2,2-difluoroethyl)pyrrolidin-3-yl]methoxy}pyridin-3-yl)-3-methyl-5-{[5-(trifluoromethyl)pyrazin-2-yl]amino}-1,2-thiazole-4-carboxamide]
4 | 340 | 91 |  |  | Cc1nsc(Nc2cncc(C(F)(F)F)n2)c1C(=O)Nc1ccc(C(=O)NC2CCN(CC(F)(F)F)CC2)cc1 [Example 167, 3-methyl-N-(4-{[1-(2,2,2-trifluoroethyl)piperidin-4-yl]carbamoyl}phenyl)-5-{[6-(trifluoromethyl)pyrazin-2-yl]amino}-1,2-thiazole-4-carboxamide]
5 | 37 | 13 |  |  | Cc1nsc(Nc2cnc(C(F)(F)F)cn2)c1C(=O)Nc1ccc(O[C@H]2CCN(CC(F)(F)F)C[C@H]2F)nc1 [Example 145, N-(6-{[(3R,4S)-3-fluoro-1-(2,2,2-trifluoroethyl)piperidin-4-yl]oxy}pyridin-3-yl)-3-methyl-5-{[5-(trifluoromethyl)pyrazin-2-yl]amino}-1,2-thiazole-4-carboxamide]
6 | 770 | 600 |  |  | Cc1nsc(Nc2cnc(C(F)(F)F)cn2)c1C(=O)Nc1ccc(OC2CCN(CCF)CC2)nc1 [Example 7, N-(6-{[1-(2-Fluoroethyl)piperidin-4-yl]oxy}pyridin-3-yl)-3-methyl-5-{[5-(trifluoromethyl)pyrazin-2-yl]amino}-1,2-thiazole-4-carboxamide]
7 |  |  | 32 | 30 | Cc1nsc(Nc2cnc(C(F)(F)F)cn2)c1C(=O)Nc1ccc(OC2CCN(CCC(F)(F)F)CC2)nc1 [Example 426, 3-Methyl-5-{[5-(trifluoromethyl)pyrazin-2-yl]amino}-N-(6-{[1-(3,3,3-trifluoro-propyl)piperidin-4-yl]oxy}pyridin-3-yl)-1,2-thiazole-4-carboxamide, Salt with Hydrochloric Acid]
8 | 94 | 36 |  |  | Cc1nsc(Nc2cnc(C(F)(F)F)cn2)c1C(=O)Nc1ccc(O[C@H]2CCN(CC(F)F)C[C@H]2F)nc1 [Example 144, N-(6-{[(3R,4S)-1-(2,2-difluoroethyl)-3-fluoropiperidin-4-yl]oxy}pyridin-3-yl)-3-methyl-5-{[5-(trifluoromethyl)pyrazin-2-yl]amino}-1,2-thiazole-4-carboxamide]
9 | 20000 | 4500 |  |  | Cc1nsc(Nc2cc(C#N)ccn2)c1C(=O)Nc1ccc(Oc2cccnc2)nc1 [Example 119, 5-[(4-Cyanopyridin-2-yl)amino]-3-methyl-N-[6-(pyridin-3-yloxy)pyridin-3-yl]-1,2-thiazole-4-carboxamide]
10 | 53 | 110 |  |  | Cc1nsc(Nc2ccc(C#N)cn2)c1C(=O)Nc1ccc(Oc2cccc(C(F)(F)F)c2)nc1 [Example 118, 5-[(5-Cyanopyridin-2-yl)amino]-3-methyl-N-{6-[3-(trifluoromethyl)phenoxy]pyridin-3-yl}-1,2-thiazole-4-carboxamide]
11 | 2800 | 240 |  |  | Cc1nsc(Nc2cnc3ccccc3n2)c1C(=O)Nc1ccc(C(=O)NC2CN(C(=O)OC(C)(C)C)CC(F)(F)C2)cc1 (stereo not drawn) [Example 158, tert-butyl 3,3-difluoro-5-{[4-({[3-methyl-5-(quinoxalin-2-ylamino)-1,2-thiazol-4-yl]carbonyl}amino)benzoyl]amino} piperidine-1-carboxylate]
12 | 110 | 60 |  |  | CCCN1CC[C@@H](Oc2ccc(NC(=O)c3c(C)nsc3Nc3cnc(C(F)(F)F)cn3)cn2)[C@@H](F)C1 [Example 140, N-(6-{[(3S,4R)-3-fluoro-1-propylpiperidin-4-yl]oxy}pyridin-3-yl)-3-methyl-5-{[5-(trifluoromethyl)pyrazin-2-yl]amino}-1,2-thiazole-4-carboxamide]
13 |  |  | 140 | 47 | Cc1nsc(Nc2cnc(C(F)(F)F)cn2)c1C(=O)Nc1ccc(O[C@@H]2CCN(CCC(F)(F)F)C2)nc1 [Example 423, 3-Methyl-5-{[5-(trifluoromethyl)pyrazin-2-yl]amino}-N-(6-{[(3R)-1-(3,3,3-trifluoropropyl)pyrrolidin-3-yl]oxy}pyridin-3-yl)-1,2-thiazole-4-carboxamide]
14 | 37 | 7 |  |  | Cc1nsc(Nc2cnc(C(F)(F)F)cn2)c1C(=O)Nc1ccc(OCC2CCN(C(=O)OC(C)(C)C)C2)nc1 (stereo not drawn) [Example 109, tert-Butyl 3-{[(5-{[(3-methyl-5-{[5-(trifluoromethyl)pyrazin-2-yl]amino}-1,2-thiazol-4-yl)carbonyl]amino}pyridin-2-yl)oxy]methyl}pyrrolidine-1-carboxylate]
15 | 3700 | 1200 |  |  | Cc1nsc(Nc2cnc3ccccc3n2)c1C(=O)Nc1ccc(S(C)(=O)=O)cc1 [Example 115, 3-Methyl-N-[4-(methylsulfonyl)phenyl]-5-(quinoxalin-2-ylamino)-1,2-thiazole-4-carboxamide]
16 |  |  | 340 | 260 | Cc1nsc(Nc2cnc(C(F)(F)F)cn2)c1C(=O)Nc1ccc(OC2CCN(CCC(F)(F)F)CC2)nc1 [Example 10, 3-Methyl-5-{[5-(trifluoromethyl)pyrazin-2-yl]amino}-N-(6-{[1-(3,3,3-trifluoropropyl)-piperidin-4-yl]oxy}pyridin-3-yl)-1,2-thiazole-4-carboxamide]
17 | 4000 | 71 |  |  | Cc1nsc(Nc2ccc(C#N)cn2)c1C(=O)Nc1ccc(NC2CCCN(C(=O)OC(C)(C)C)C2)nc1 (stereo not drawn) [Example 171, tert-butyt 3-({5-[({5-[(5-cyanopyridin-2-yl)amino]-3-methyl-1,2-thiazol-4-yl}carbonyl)amino]pyridin-2-yl}amino)piperidine-1-carboxylate]
18 | 360 | 220 |  |  | Cc1nsc(Nc2cnc(C(F)(F)F)cn2)c1C(=O)Nc1ccc(OC2CCN(CC(F)(F)F)CC2)nc1 [Example 9, -Methyl-N-(6-{[1-(2,2,2-trifluoroethyl)piperidin-4-yl]oxy}pyridin-3-yl)-5-{[5-(trifluoromethyl)pyrazin-2-yl]amino}-1,2-thiazole-4-carboxamide]
19 | 30 | 39 |  |  | Cc1nsc(Nc2cnc(C(F)(F)F)cn2)c1C(=O)Nc1ccc(OCC2CCN(CC(F)F)C2)nc1 (stereo not drawn) [Example 122, N-(6-{[1-(2,2-difluoroethyl)pyrrolidin-3-yl]methoxy}pyridin-3-yl)-3-methyl-5-{[5-(trifluoromethyl)pyrazin-2-yl]amino}-1,2-thiazole-4-carboxamide]
20 | 75 | 17 |  |  | Cc1nsc(Nc2cncc(C(F)(F)F)n2)c1C(=O)Nc1ccc(F)c(OC2CCN(C(=O)OC(C)(C)C)CC2)c1 [Example 168, tert-butyl 4-(2-fluoro-5-{[(3-methyl-5-{[6-(trifluoromethyl)pyrazin-2-yl]amino}-1,2-thiazol-4-yl)carbonyl]amino}phenoxy)piperidine-1-carboxylate]
21 | 120 | 160 |  |  | Cc1nsc(Nc2cnc(C(F)(F)F)cn2)c1C(=O)Nc1ccc(OC2CCN(CCF)CC2)c(F)c1 [Example 162, N-(3-fluoro-4-{[1-(2-fluoroethyl)piperidin-4-yl]oxy}phenyl)-3-methyl-5-{[5-(trifluoromethyl)pyrazin-2-yl]amino}-1,2-thiazole-4-carboxamide]
22 | 39 | 61 |  |  | Cc1nsc(Nc2cnc(C(F)(F)F)cn2)c1C(=O)Nc1ccc(OC2CCN(CC(F)(F)F)CC2)c(F)c1 [Example 163, N-(3-fluoro-4-{[1-(2,2,2-trifluoroethyl)piperidin-4-yl]oxy}phenyl)-3-methyl-5-{[5-(trifluoromethyl)pyrazin-2-yl]amino}-1,2-thiazole-4-carboxamide]
23 | 250 | 160 |  |  | Cc1nsc(Nc2ccc(C#N)cn2)c1C(=O)Nc1cccc(S(C)(=O)=O)c1 [Example 150, 5-[(5-cyanopyridin-2-yl)amino]-3-methyl-N-[3-(methylsulfonyl)phenyl]-1,2-thiazole-4-carboxamide]
24 | 1600 | 470 |  |  | Cc1nsc(Nc2cnc3cc(F)ccc3n2)c1C(=O)Nc1ccc(S(N)(=O)=O)cc1 [Example 149, 5-[(6-fluoroquinoxalin-2-yl)amino]-3-methyl-N-(4-sulfamoylphenyl)-1,2-thiazole-4-carboxamide]

Source: patent US20170334899A1, “AMINO-SUBSTITUTED ISOTHIAZOLES” (Bayer Pharma Aktiengesellschaft, priority 2014, published 2017)
